What all share (format): in vivo
Assay [1] concerns Lolium perenne (LOLPE). In words: Post-emergence herbicidal activity, glasshouse pot test. The settings on record: 312 h, rate 250 g/ha, evaluated after 13 days, read-out: Post-emergence activity, LOLPE (100=total damage to plant; 0=no damage to plant). How it is done: (§1) Seeds of a variety of test species were sown in standard soil in pots. After cultivation for one day (pre-emergence) or after 8 days cultivation (post-emergence) under controlled conditions in a glasshouse (at 24/16° C., day/night; 14 hours light; 65% humidity), the plants were sprayed with an aqueous spray solution derived from the formulation of the technical active ingredient in acetone/water (50:50) solution containing 0.5% Tween 20 (polyoxyethelyene sorbitan monolaurate, CAS RN 9005-64-5). The test plants were then grown in a glasshouse under controlled conditions in a glasshouse (at 24/16° C., day/night; 14 hours light; 65% humidity) and watered twice daily. After 13 days for pre and post-emergence, the test was evaluated (100=total damage to plant; 0=no damage to plant).
(§2) Test plants: Setaria faberi (SETFA), Lolium perenne (LOLPE), Alopecurus myosuroides (ALOMY), Echinochloa crus-galli (ECHCG), and Avena fatua (AVEFA)

The subject of assay [2] is Echinochloa crus-galli (ECHCG). The description is as above. The conditions noted are these: 312 h, rate 250 g/ha, evaluated after 13 days, read-out: Post-emergence activity, ECHCG (100=total damage to plant; 0=no damage to plant). How it is done: as §1, §2
Assay [3] deals with Avena fatua (AVEFA). The assay is described as above. The settings on record: 312 h, rate 250 g/ha, evaluated after 13 days, read-out: Post-emergence activity, AVEFA (100=total damage to plant; 0=no damage to plant). How it is done:
as §1, §2

Assay [4] concerns Alopecurus myosuroides (ALOMY). The assay is described as above. The settings on record: 312 h, rate 250 g/ha, evaluated after 13 days, read-out: Post-emergence activity, ALOMY (100=total damage to plant; 0=no damage to plant). How it is done: as §1, §2
Assay [5] deals with Lolium perenne (LOLPE). Nature of the assay: Pre-emergence herbicidal activity, glasshouse pot test. The settings on record: 312 h, Rate 250 g/ha, sprayed one day after sowing, evaluated after 13 days, 100=total damage to plant, 0=no damage to plant. As to the method: as §1, with “plant). Test plants: Setaria faberi (SETFA), Lolium perenne (LOLPE), Alopecurus myosuroides (ALOMY), Echinochloa crus-galli (ECHCG), and Avena fatua (AVEFA) Pre-Emergence Activity” for “plant).”

Assay [6] has as its system Echinochloa crus-galli (ECHCG). Described as above. The settings on record: 312 h, Rate 250 g/ha, sprayed one day after sowing, evaluated after 13 days, 100=total damage to plant, 0=no damage to plant. How it is done:
as §1, with “plant). Test plants: Setaria faberi (SETFA), Lolium perenne (LOLPE), Alopecurus myosuroides (ALOMY), Echinochloa crus-galli (ECHCG), and Avena fatua (AVEFA) Pre-Emergence Activity” for “plant).”

Assay [7] deals with Avena fatua (AVEFA). Described as above. The conditions noted are these: 312 h, Rate 250 g/ha, sprayed one day after sowing, evaluated after 13 days, 100=total damage to plant, 0=no damage to plant. How it is done:
as §1, with “plant). Test plants: Setaria faberi (SETFA), Lolium perenne (LOLPE), Alopecurus myosuroides (ALOMY), Echinochloa crus-galli (ECHCG), and Avena fatua (AVEFA) Pre-Emergence Activity” for “plant).”

Assay [8] has as its system Alopecurus myosuroides (ALOMY). The description is as above. The conditions noted are these: 312 h, Rate 250 g/ha, sprayed one day after sowing, evaluated after 13 days, 100=total damage to plant, 0=no damage to plant. How it is done:
as §1, with “plant). Test plants: Setaria faberi (SETFA), Lolium perenne (LOLPE), Alopecurus myosuroides (ALOMY), Echinochloa crus-galli (ECHCG), and Avena fatua (AVEFA) Pre-Emergence Activity” for “plant).”

Molecules are shown by their SMILES.

Take `CCc1ccc(-c2ccc(Cl)c(Cl)c2Cl)cc1C1=C(O)CCC1=O` [Compound T-20]: the pest or weed control at 250 g/ha in assay [1] amounted to 20%; in assay [2], 70%; in assay [3] it was 10%; in assay [4], 20%; in assay [5], 10%; in assay [6], 30%. Moreover, the pest or weed control at 250 g/ha in assay [7] and in assay [8] was 0% in each case.

As to `CCc1ccc(-c2ccc(Cl)c(OC)c2)cc1C1=C(O)CCC1=O` [Compound T-6], the pest or weed control at 250 g/ha in assay [1] was 60%; in assay [2], 90%; in assay [3] it was 10%; in assay [4], 50%; in assay [5], 30%; in assay [6], 60%. Besides, the pest or weed control at 250 g/ha in assay [7] and in assay [8] was 0% in each case.

Consider `CCc1ccc(-c2ccc(Cl)cc2F)cc1C1=C(O)CCC1=O` [Compound T-3, 2-(4′-chloro-4-ethyl-2′-fluorobiphenyl-3-yl)cyclopentane-1,3-dione], for which the pest or weed control at 250 g/ha in assay [1] is 40%; in assay [2], 100%; in assay [3], 90%; in assay [4] it was 30%; in assay [5], 90%; in assay [6], 100%. Moreover, the results for the pest or weed control at 250 g/ha in assay [7] and in assay [8] were 60% and 30%, respectively.

For the compound `CCc1ccc(-c2c(F)cc(Cl)cc2F)cc1C1=C(O)CCC1=O` [Compound T-10], the pest or weed control at 250 g/ha in assay [1] was 40%; in assay [2] it was 90%; in assay [3] it was 50%; in assay [4], 30%; in assay [5] it was 0%; in assay [6], 0%. Also, the pest or weed control at 250 g/ha in assay [7] and in assay [8] was 0% each time.

`CCc1ccc(-c2ccc(C(F)(F)F)cc2)cc1C1=C(O)CCC1=O` [Compound T-18]: the pest or weed control at 250 g/ha in assay [1] stood at 70%; in assay [2], 100%; in assay [3], 90%; in assay [4], 80%; in assay [5], 30%; in assay [6], 50%. In addition, the pest or weed control at 250 g/ha stood at 30% in assay [7] and 50% in assay [8].

In the case of `CCc1ccc(-c2ccc(Cl)c(C(F)(F)F)c2)cc1C1=C(O)CCC1=O` [Compound T-8], the pest or weed control at 250 g/ha in assay [1] was 60%; in assay [2] it was 100%; in assay [3], 30%; in assay [4], 50%; in assay [5], 60%; in assay [6], 60%. In addition, the pest or weed control at 250 g/ha in assay [7] amounted to 0%; in assay [8], 30%.

Regarding `CCc1ccc(-c2ccc3ccccc3c2)cc1C1=C(O)CCC1=O` [Compound T-7], the pest or weed control at 250 g/ha in assay [1] is 30%; in assay [2], 20%; in assay [3], 10%; in assay [4], 10%; in assay [5] it was 10%; in assay [6] it was 20%. Moreover, the pest or weed control at 250 g/ha in assay [7] and in assay [8] was 0% in each case.

With `CCc1ccc(-c2ccc(Cl)c(Cl)c2F)cc1C1=C(O)CCC1=O` [Compound T-13], the pest or weed control at 250 g/ha came out at 40% in assay [1]; 60% in assay [2]; 0% in assay [3]; 10% in assay [4]; 0% in assay [5]; 0% in assay [6]. The pest or weed control at 250 g/ha in assay [7] and in assay [8] was 0% each time.

Consider `CCc1ccc(-c2cc(Cl)c(F)cc2F)cc1C1=C(O)CCC1=O` [Compound T-22], for which the pest or weed control at 250 g/ha amounted to 10% in assay [1]; 60% in assay [2]; 10% in assay [3]; 30% in assay [4]; 10% in assay [5]; 30% in assay [6]. Further, the pest or weed control at 250 g/ha in assay [7] and in assay [8] was 0% throughout.

Regarding `CCc1ccc(-c2ccc(Cl)c(Cl)c2)cc1C1=C(O)CCC1=O` [Compound T-5], the pest or weed control at 250 g/ha in assay [1] is 50%; in assay [2] it was 70%; in assay [3], 20%; in assay [4] it was 30%; in assay [5], 20%; in assay [6] it was 20%. The results for the pest or weed control at 250 g/ha in assay [7] and in assay [8] were 0% and 20%, respectively.

Take `CCc1ccc(-c2ccc(Cl)c(C)c2)cc1C1=C(O)CCC1=O` [Compound T-15]: the pest or weed control at 250 g/ha in assay [1] was 30%; in assay [2] it was 30%; in assay [3], 0%; in assay [4] it was 10%; in assay [5], 0%; in assay [6] it was 0%. Moreover, the pest or weed control at 250 g/ha in assay [7] and in assay [8] was 0% each time.

Turning to `CCc1ccc(-c2cc(F)c(Cl)c(F)c2)cc1C1=C(O)CCC1=O` [Compound T-21], the pest or weed control at 250 g/ha stood at 30% in assay [1]; 40% in assay [2]; 20% in assay [3]; 30% in assay [4]; 100% in assay [5]; 40% in assay [6]. In addition, the pest or weed control at 250 g/ha was found to be 10% in assay [7] and 40% in assay [8].

Take `CCc1ccc(-c2cc(Cl)c(Cl)cc2Cl)cc1C1=C(O)CCC1=O` [Compound T-16]: the pest or weed control at 250 g/ha came out at 60% in assay [1]; 80% in assay [2]; 80% in assay [3]; 50% in assay [4]; 20% in assay [5]; 50% in assay [6]. Besides, the pest or weed control at 250 g/ha in assay [7] and in assay [8] was 0% throughout.

Turning to `CCc1ccc(-c2ccc(Cl)cc2Cl)cc1C1=C(O)CCC1=O` [Compound T-14], the pest or weed control at 250 g/ha is 30% in assay [1]; 70% in assay [2]; 30% in assay [3]; 30% in assay [4]; 30% in assay [5]; 50% in assay [6]. For the same compound, the pest or weed control at 250 g/ha in assay [7] worked out at 0%; in assay [8], 10%.

`CCc1ccc(-c2ccc(Cl)c(F)c2Cl)cc1C1=C(O)CCC1=O` [Compound T-11]: the pest or weed control at 250 g/ha was 50% in assay [1]; 90% in assay [2]; 30% in assay [3]; 60% in assay [4]; 30% in assay [5]; 50% in assay [6]. In addition, the pest or weed control at 250 g/ha in assay [7] stood at 10%; in assay [8], 20%.

In the case of `CCc1ccc(-c2ccc(Cl)cc2)cc1C1=C(O)CCC1=O` [Compound T-1, 2-(4′-chloro-4-ethylbiphen-3-yl)-1,3-cyclopentanedione], the pest or weed control at 250 g/ha was 100% in assay [2]; 90% in assay [3]; 80% in assay [4]; 100% in assay [6]; 70% in assay [7]; 90% in assay [8].
